# Results reported in patent EP0717738B1, “SUBSTITUTED OXAZINE AND THIAZINE OXAZOLIDINONE ANTIMICROBIALS” (priority 1993, dated 1995).
# “And” between values parts separate entries of the source, which are not always exact repeats. Equal values may be shown once. Read-outs that look alike come from different tables or passages of the source.
# Assays:
# [1] = system: M. avium Lowell Young; assay: In vitro MIC by standard dilution method, M. avium Lowell Young; conditions: Mycobacterium avium, read-out: MIC M. avium Lowell Young
# Experimental: (§1) The in vitro activity reported in Table 2 was conducted by standard dilution methods known to those skilled in the art. Briefly, serial two-fold dilutions of antibiotic are prepared in a diluent, and a standard volume of mycobacterial growth medium is added to drug aliquot. The medium is inoculated with a standardized mycobacterial cell suspension, and then incubated under appropriate conditions. Following incubation, the Minimal Inhibitory Concentration (MIC) is determined by visual observation. The MIC is defined as the lowest drug concentration (in µg/ml) required to inhibit mycobacterial growth.
# [2] = system: M. avium LPR; assay: In vitro MIC by standard dilution method, M. avium LPR; conditions: Mycobacterium avium, read-out: MIC M. avium LPR
# Experimental: as §1
# [3] = system: M. tuberculosis (Erdman strain); assay: In vivo antimycobacterial activity, organ counts in infected CD-1 mice; parameters: species or system Mycobacterium tuberculosis; conditions: CD-1 mice infected intravenously with 1 x 10^7 M. tuberculosis
# Experimental: The in vivo data for Table 3 was obtained from CD-1 mice infected intravenously with 1 x 10^7 viable M. tuberculosis (Erdman strain). Twenty-four hours later drug treatment was initiated. All the drugs were given by oral gavage twice daily for four weeks. At the end of therapy, viable cell counts were determined from homogenates of spleens and lungs.
# [4] = system: S. aureus UC® No. 9213; assay: Murine Assay: in vivo antimicrobial activity, survival of infected mice; parameters: species or system Staphylococcus aureus; conditions: survival over six days; for ED50: Staphylococcus aureus, oral treatment one hour and five hours after infection, probit analysis
# Experimental: Antimicrobial activity was tested in vivo using the Murine Assay procedure. Groups of female mice (six mice of 18-20 grams each) were injected intraperitoneally with Staphylococcus aureus bacteria which were thawed just prior to use and suspended in brain heart infusion with 4% brewers yeast (Staphylococcus aureus) or brain heart infusion (Streptococcus species). Antibiotic treatment at six dose levels per drug was administered one hour and five hours after infection by either oral intubation or subcutaneous routes. Survival was observed daily for six days. ED50 values based on mortality ratios were calculated using probit analysis. The subject compounds were compared against vancomycin as a control.
# [5] = system: M. tuberculosis 91-2225; assay: In vitro MIC by standard dilution method, M. tuberculosis; type: cell-based; conditions: Mycobacterium tuberculosis, 912225; lowest concentration required to kill the organism or inhibit its growth in vitro; visual observation
# [6] = 100 mg/kg by oral gavage twice daily for four weeks
# [7] = UC9213, po, 144 h, read-out: ED50 (mg/kg) Example, PO, female mice infected intraperitoneally
# [8] = UC9213, 144 h, female mice infected intraperitoneally, read-out: ED50 (mg/kg) Example, PO
# [9] = positive control, 25 mg/kg orally twice daily for four weeks
structure (smiles),measurement,setting,value
"CC[C@H]1OC(=O)[C@H](C)[C@@H](O[C@H]2C[C@@](C)(OC)[C@@H](O)[C@H](C)O2)[C@H](C)[C@@H](O[C@@H]2O[C@H](C)C[C@H](N(C)C)[C@H]2O)[C@](C)(O)C[C@@H](C)CN(C)[C@H](C)[C@@H](O)[C@]1(C)O [AZITHROMYCI N, azithromycin, reference compound]",MIC,[1],4 µg/mL
same,MIC,[2],8 µg/mL
"CC(=O)NC[C@H]1CN(c2ccc(N3CCSCC3)c(F)c2)C(=O)O1 [Example 1, (S)-N-[[3-[3-fluoro-4-(4-thiomorpholinyl)phenyl]-2-Oxo-5-oxazolidinyl]methyl]acetamide]",MIC,[1],1 µg/mL
same,MIC,[2],4 µg/mL
same,"Log10 Colony-Forming Units of Mycobacterium tuberculosis Per Organ, Lung",[3]; [6],3.59
same,"Log10 Colony-Forming Units of Mycobacterium tuberculosis Per Organ, Spleen",[3]; [6],4.61
same,ED50,[4]; [7],1.25 mg/kg
same,MIC,[5],0.5 µg/mL
"CC(=O)NC[C@H]1CN(c2ccc(N3CCS(=O)(=O)CC3)c(F)c2)C(=O)O1 [Example 2, (S)-N-[[3-[3-fluoro-4-(1,1-dioxothiomorpholin-4-yl)phenyl]-2-oxo-5-oxazolidinyl]methyl]acetamide]",MIC,[1],2 µg/mL
same,MIC,[2],4 µg/mL
same,ED50,[4]; [7],2 mg/kg
same,MIC,[5],0.5 µg/mL
"CC(=O)NC[C@H]1CN(c2ccc(N3CC[S+]([O-])CC3)c(F)c2)C(=O)O1 [Example 3, (S)-N-[[3-[3-fluoro-4-(1-oxothiomorpholin-4-yl)phenyl]-2-oxo-5-oxazolidinyl]methyl]acetamide]",ED50,[4]; [8],3.4 mg/kg
CC(=O)NC[C@H]1CN(c2cc(F)c(N3CCOCC3)c(F)c2)C(=O)O1 [Example 4],"Log10 Colony-Forming Units of Mycobacterium tuberculosis Per Organ, Lung",[3]; [6],5.03
same,"Log10 Colony-Forming Units of Mycobacterium tuberculosis Per Organ, Spleen",[3]; [6],5.24
same,ED50,[4]; [7],5.5 mg/kg
CC(=O)NC[C@H]1CN(c2ccc(N3CCOCC3)c(F)c2)C(=O)O1 [Example 5],ED50,[4]; [8],5.6 mg/kg
O=CNC[C@H]1CN(c2ccc(N3CCOCC3)c(F)c2)C(=O)O1 [Example 8],ED50,[4]; [8],12.4 mg/kg
COC(=O)NC[C@H]1CN(c2ccc(N3CCOCC3)c(F)c2)C(=O)O1 [Example 9],ED50,[4]; [8],4.4 mg/kg
O=C(NC[C@H]1CN(c2ccc(N3CCOCC3)c(F)c2)C(=O)O1)C(Cl)Cl [Example 10],ED50,[4]; [8],6.8 mg/kg
"NNC(=O)c1ccncc1 [ISONIAZID, Isoniazid, reference compound]","Log10 Colony-Forming Units of Mycobacterium tuberculosis Per Organ, Lung",[3]; [9],3.81
same,"Log10 Colony-Forming Units of Mycobacterium tuberculosis Per Organ, Spleen",[3]; [9],4.36
same,MIC,[5],≤ 0.015 µg/mL
"CN[C@H](CC(C)C)C(=O)N[C@H]1C(=O)N[C@@H](CC(N)=O)C(=O)N[C@H]2C(=O)N[C@H]3C(=O)N[C@H](C(=O)N[C@H](C(=O)O)c4cc(O)cc(O)c4-c4cc3ccc4O)[C@H](O)c3ccc(c(Cl)c3)Oc3cc2cc(c3O[C@@H]2O[C@H](CO)[C@@H](O)[C@H](O)[C@H]2O[C@H]2C[C@](C)(N)[C@H](O)[C@H](C)O2)Oc2ccc(cc2Cl)[C@H]1O [Vancomycin, vancomycin, reference compound]","ED50 (mg/kg) Vancomycin, SC","[4]; vancomycin control run alongside the example of the same row, female mice infected intraperitoneally, subcutaneous treatment one hour and five hours after infection, 8640 min",2.0 mg/kg and 3.9 mg/kg
